Experimental data: US11376278B2, “Compositions and methods for treating disease” (Sulfilatec, Inc., priority 2016, dated 2022)
“And” between values parts separate entries of the source, which are not always exact repeats. Equal values may be shown once. “Also recorded” adds a separate entry of the source.

Assays:
[1] = tested on: cardiac fibrosis in salt sensitive Dahl rats on a high salt diet; assay: Cardiac interstitial fibrosis, Masson's Trichrome staining, Dahl rats on high salt diet; format: in vivo, rat; conditions: 300 mg NaBr per kg AIN-76a+8% NaCl, 10 weeks, p<0.0001
Procedure: (§1) AIN-76A was base diet for all animals. […] Fibrosis determined from 5 μm tissue sections stained with Masson's Trichrome. […] Approximately 25-30 images were collected and processed per animal.

[2] = tested on: humans (sedative, anti-epilepsy effect); conditions: in vivo; cited from earlier work
10 week-old male SHR = assay: Blood pressure and heart rate (tail cuff) one day after single IP administration in SHR; format: in vivo, rat; conditions: single IP 154.5 μg NaBr per kg
Procedure: (A) In 10 week-old male SHR, single administration of Br^− reduced systolic and diastolic blood pressures compared to saline control. […] (C-D) Measured values for systolic (C) and diastolic (D) blood pressure, denoting statistical significance where achieved. 154.5 μg NaBr per kg rat body weight injected via IP. All “Post Administration” data collected one day following administration. n=8 in Br Treatment group, =5 in saline control. BP & HR measured via tail cuff. *:p<0.05, t test.
The inventors next asked whether Br^− exerts any short-term activity in addition to the improved cardiac fibrosis noted after 10 weeks administration. Returning to the SHR preclinical model of disease, the inventors specifically asked whether Br^− administration modulates certain biomarkers associated with cardiovascular disease at one day post-administration. To this end, Br^− was administered to 8 SHR via intraperitoneal (IP) injection with an estimated 0.154 μg NaBr per gram body weight. For control, 8 SHR were administered saline via IP injection containing an estimated 4 ng NaBr per gram body weight. […] Without wishing to be bound by theory, embodiments as described herein can therapeutically improve certain hemodynamic and circulating biomarkers that are associated with progression of cardiovascular and kidney diseases. Moreover, Br^− achieves its cardiovascular and renal therapeutic activities in part via modulation of natriuretic peptide signaling.

[3] = Serum Br- concentration in Dahl rats after 10 weeks on diet (mass spectrometry); conditions: AIN-76A+8% NaCl+Br diet
Procedure: (A) Serum Br^− concentrations from rats fed a daily diet over 10 weeks of “AIN-76A”, “AIN-76A+8% NaCl”, “AIN-76A+Br”, or “AIN-76A+8% NaCl+Br”. […] The two diets containing 8% NaCl (eg. “AIN-76A+8% NaCl” and “AIN-76A+8% NaCl+Br”) were fed to Dahl rats while the remaining two diets (eg. “AIN-76A” and “AIN-76A+Br”) were fed to SHR, as indicated in panel A. Serum Br^− measurements were determined using mass spectrometry.

cardiac fibrosis in SHR = assay: Cardiac interstitial fibrosis, Masson's Trichrome staining, SHR; format: in vivo, rat; conditions: male SHR, 10 mg NaBr per kg AIN-76a, oral daily, 10 weeks, p<0.0001
Procedure: as §1
Following conclusion of the in vivo study, rat hearts were formalin-fixed, paraffin-embedded, and 5 μm-thick sections were obtained for histochemical analysis.

[4] = tested on: spontaneously hypertensive rat (SHR) model of cardiovascular disease; assay: 10 week repeat dosing study in SHR disease model (organ weights, survival, urinary protein, safety); format: in vivo
Procedure: (A-B) Heart and kidney weights from 10 week repeat dosing study in SHR model. Br^− administered daily via diet, with AIN-76a as base diet. WKY served as genetic control. Both kidneys per animal weighed together. […] (C-D) Heart and kidney weights from panels A-B normalized to body weight. […] (E) Rats were administered a diet of AIN76A with or without 10 mg NaBr per kg feed (“SHR” and “SHR+Br” study arms, respectively). Survival probability was calculated between SHR rats receiving dietary Br^− and SHR rats receiving AIN76A control diet over a 10 week study period. As a second control, Wistar Kyoto (WKY) rats were fed AIN76A control diet over the same period. 8 rats per study arm.
Eight SHR animals received AIN76A diet for 10 weeks while 8 SHR animals received AIN76A supplemented with 10 mg NaBr/kg diet.

[5] = Serum Br- concentration in spontaneously hypertensive rats (SHR) after 10 weeks on diet; format: in vivo, rat; conditions: AIN-76A+Br diet
Procedure: (A) Serum Br^− concentrations from rats fed a daily diet over 10 weeks of “AIN-76A”, “AIN-76A+8% NaCl”, “AIN-76A+Br”, or “AIN-76A+8% NaCl+Br”. Salt sensitive Dahl rats as well as Spontaneously Hypertensive Rats (SHR) were used in these studies. The two diets containing 8% NaCl (eg. “AIN-76A+8% NaCl” and “AIN-76A+8% NaCl+Br”) were fed to Dahl rats while the remaining two diets (eg. “AIN-76A” and “AIN-76A+Br”) were fed to SHR, as indicated in panel A. Serum Br^− measurements were determined using mass spectrometry.
Rats were administered 10 mg of NaBr per kg of AIN76A diet for 10 weeks. At the end of the study, serum Br^− levels in Br-treated rats were compared to serum Br^− levels in SHR on AIN76A as well as Wistar rats on AIN76A.

dogs (epilepsy) = conditions: dogs that do not respond to an initial course of Br- treatment; cited from earlier work
[6] = tested on: salt sensitive Dahl rats on high salt diet; assay: Survival of salt sensitive Dahl rats on high salt (8% NaCl) diet, 10 week study; format: in vivo, rat
Excerpt: Control rats received AIN76A without supplemental chloride or bromide. 9 rats per study arm.
Mortality events were counted over the 10 week study. […] Thus, administration of Br^− and together increased the survival probability of 52% as compared to administration of alone (FIG. 1).

[7] = tested on: acute heart failure patients; conditions: acute heart failure patients in Japan; cited from earlier work
[8] = tested on: patients with acute decompensated heart failure; conditions: cited from earlier work
[9] = one day post administration, vs saline

[Br-].[Na+] [Br^−, sodium bromide]
cardiac fibrosis (Masson's Trichrome) [1]: less cardiac fibrosis | circulating/serum Br- levels at which the anti-epilepsy effect occurs [2]: > 6 mM and 6 to 12 mM | diastolic blood pressure (10 week-old male SHR; [9]): reduced | systolic blood pressure (10 week-old male SHR; [9]): statistically significant reductions; also recorded: reduced | heart rate (10 week-old male SHR; one day post, not statistically significant (p=0.052)): possible reduction | serum Br- concentration, toxicity assessment [3]: non-toxic | cardiac fibrosis (Masson's Trichrome blue staining) (cardiac fibrosis in SHR): dramatic reduction; also recorded: less cardiac fibrosis | survival probability among groups ([4]; SHR+Br vs SHR and WKY, 10 week study, 8 rats per arm): no statistical difference | absolute heart weight vs SHR on AIN-76a alone ([4]; SHR, 10 mg NaBr/kg diet daily, 10 weeks, p<0.05): significantly reduced; also recorded: Statistically significant reduction | urinary protein levels ([4]; SHR, 10 mg NaBr/kg diet, through the end of the 10 week study): a difference that persisted | urinary microprotein/creatinine ratio (urinary protein levels) ([4]; SHR, after one day on study diet (10 mg NaBr/kg)): significantly lower; also recorded: significantly reduced | serum Br- concentration, toxicity assessment [5]: non-toxic | therapeutic serum Br- for sedative effect (dogs (epilepsy)): above 25 mM | increase of survival probability compared to high salt alone ([6]; Dahl rats, 8% NaCl + 300 mg NaBr per kg food vs 8% NaCl, 10 weeks): 52% | survival probability ([6]; Dahl rats, AIN76A with 8% NaCl and 300 mg NaBr per kg food, 10 week study): 67% | survival probability vs High Salt alone (log rank test) ([6]; High Salt+Br arm (AIN76A+8% NaCl+300 mg NaBr per kg feed), 9 rats per arm, p<0.001): Significantly greater survival probability

CC[C@H](C)[C@@H]1NC(=O)[C@H](CCCNC(=N)N)NC(=O)[C@H](CC(=O)O)NC(=O)[C@H](CCSC)NC(=O)[C@H](CCCNC(=N)N)NC(=O)CNC(=O)CNC(=O)[C@H](Cc2ccccc2)NC(=O)[C@@H](NC(=O)[C@H](CO)NC(=O)[C@H](CO)NC(=O)[C@H](CCCNC(=N)N)NC(=O)[C@H](CCCNC(=N)N)NC(=O)[C@H](CC(C)C)NC(=O)[C@@H](N)CO)CSSC[C@@H](C(=O)N[C@@H](CC(N)=O)C(=O)N[C@@H](CO)C(=O)N[C@@H](Cc2ccccc2)C(=O)N[C@@H](CCCNC(=N)N)C(=O)N[C@@H](Cc2ccc(O)cc2)C(=O)O)NC(=O)CNC(=O)[C@H](CC(C)C)NC(=O)CNC(=O)[C@H](CO)NC(=O)[C@H](CCC(N)=O)NC(=O)[C@H](C)NC(=O)CNC1=O [carperitide]
in-hospital mortality [7]: increased in-hospital mortality

nesiritide
mortality [8]: increased mortality | renal function [8]: worsening renal function
